Laboratory results: patent publication US20150239889A1, “PYRAZOLOPYRIMIDINE COMPOUND” (MITSUBISHI TANABE PHARMA CORPORATION, priority 2012, published 2015)

Tests used:
human HIF-PHD3 = molecular target: T1, human HIF-PHD3 (Homo sapiens, UniProt Q9H6Z9); test: HIF-PHD inhibition assay (fluorescence polarization), human HIF-PHD3; type: biochemical; conditions: 2-oxoglutaric acid 166 μmol/L
T1 construct: purchased CrystalGenomics Ltd
Procedure: (§1) The activity of the test compound to inhibit human HIF-PHD2 and human HIF-PHD3 was determined.
(§2) The value of enzyme activity was calculated by subtracting the value of fluorescence polarization before addition of the enzyme from the value of fluorescence polarization after addition of enzyme (mP value).
(§3) FAM: 5′-fluoresceinamide ACA: aminocaproic acid

human HIF-PHD2 = molecular target: T2, human HIF-PHD2 (Homo sapiens, UniProt Q9GZT9); test: HIF-PHD inhibition assay (fluorescence polarization), human HIF-PHD2; type: biochemical; conditions: 2-oxoglutaric acid 3.33 μmol/L
T2 construct: purchased CrystalGenomics Ltd
Procedure: as §1, §2, §3

T1 sequence (Q9H6Z9 whole entry): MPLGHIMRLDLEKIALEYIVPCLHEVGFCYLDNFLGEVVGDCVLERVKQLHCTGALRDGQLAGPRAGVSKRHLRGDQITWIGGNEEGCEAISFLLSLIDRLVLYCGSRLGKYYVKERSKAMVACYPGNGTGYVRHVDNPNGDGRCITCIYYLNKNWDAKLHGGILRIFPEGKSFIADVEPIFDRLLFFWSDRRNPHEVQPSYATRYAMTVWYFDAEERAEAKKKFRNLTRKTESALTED
T2 sequence (Q9GZT9 2-426 limits assumed): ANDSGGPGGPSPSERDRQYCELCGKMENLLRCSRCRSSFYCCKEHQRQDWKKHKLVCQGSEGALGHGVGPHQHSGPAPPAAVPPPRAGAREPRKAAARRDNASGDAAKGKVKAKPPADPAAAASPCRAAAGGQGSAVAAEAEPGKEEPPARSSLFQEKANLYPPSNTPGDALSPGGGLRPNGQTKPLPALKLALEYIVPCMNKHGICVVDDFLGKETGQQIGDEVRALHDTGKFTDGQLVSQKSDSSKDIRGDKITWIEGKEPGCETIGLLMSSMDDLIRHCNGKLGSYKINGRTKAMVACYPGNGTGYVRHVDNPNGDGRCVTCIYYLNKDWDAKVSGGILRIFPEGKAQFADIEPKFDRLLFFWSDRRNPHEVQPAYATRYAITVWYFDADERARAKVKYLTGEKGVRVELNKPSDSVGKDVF

IC50 (human HIF-PHD3) [nM] | IC50 (human HIF-PHD2) [nM] | SMILES
490 | 59 | Cc1cc(F)cc(C(C)n2ncc3nc(-n4cc(C(=O)O)cn4)nc(O)c32)c1 (single isomer, unassigned) [Example 300]
450 | 62 | CC(c1cc(F)cc(Cl)c1)n1ncc2nc(-n3cc(C(=O)O)cn3)nc(O)c21 (single isomer, unassigned) [Example 306]
470 | 57 | Cc1cc(C)cc(C(C)n2ncc3nc(-n4cc(C(=O)O)cn4)nc(O)c32)c1 (single isomer, unassigned) [Example 310]
420 | 19 | CCC(c1ccc(F)c(F)c1)n1ncc2nc(-n3cc(C(=O)O)cn3)nc(O)c21 (single isomer, unassigned) [Example 331]
320 | 46 | CCC(c1cc(F)cc(F)c1)n1ncc2nc(-n3cc(C(=O)O)cn3)nc(O)c21 (single isomer, unassigned) [Example 333]
300 | 16 | CCC(c1cc(F)cc(Cl)c1)n1ncc2nc(-n3cc(C(=O)O)cn3)nc(O)c21 (single isomer, unassigned) [Example 340]
340 | 23 | CC(C)C(c1ccc(F)c(F)c1)n1ncc2nc(-n3cc(C(=O)O)cn3)nc(O)c21 (single isomer, unassigned) [Example 359]
760 | 61 | CC(C)C(c1cc(F)cc(F)c1)n1ncc2nc(-n3cc(C(=O)O)cn3)nc(O)c21 (single isomer, unassigned) [Example 361]
460 | 12 | O=C(O)c1cnn(-c2nc(O)c3c(cnn3C(c3ccc(Cl)cc3)C3CC3)n2)c1 (single isomer, unassigned) [Example 365]
350 | 34 | O=C(O)c1cnn(-c2nc(O)c3c(cnn3C(c3ccc(F)cc3)C3CC3)n2)c1 (single isomer, unassigned) [Example 367]
400 | 35 | Cc1ccc(C(C2CC2)n2ncc3nc(-n4cc(C(=O)O)cn4)nc(O)c32)cc1 (single isomer, unassigned) [Example 369]
400 | 41 | O=C(O)c1cnn(-c2nc(O)c3c(cnn3C(c3ccc(F)c(Cl)c3)C3CC3)n2)c1 (single isomer, unassigned) [Example 371]
650 | 36 | O=C(O)c1cnn(-c2nc(O)c3c(cnn3C(c3cc(F)cc(F)c3)C3CC3)n2)c1 (single isomer, unassigned) [Example 373]
500 | 52 | O=C(O)c1cnn(-c2nc(O)c3c(cnn3C(c3cccc(Cl)c3)C3CC3)n2)c1 (single isomer, unassigned) [Example 375]
340 | 66 | Cc1cc(C(C2CC2)n2ncc3nc(-n4cc(C(=O)O)cn4)nc(O)c32)ccc1F (single isomer, unassigned) [Example 377]
 | 160 | C[C@@H](c1c(F)cccc1F)n1ncc2nc(-n3cc(C(=O)O)cn3)nc(O)c21 [Example 256]
 | 72 | C[C@@H](c1cc(F)ccc1F)n1ncc2nc(-n3cc(C(=O)O)cn3)nc(O)c21 [Example 261]
 | 73 | Cc1cc(Cl)cc([C@@H](C)n2ncc3nc(-n4cc(C(=O)O)cn4)nc(O)c32)c1 [Example 266]

Continued, compound first:

SMILES | IC50 (human HIF-PHD3) [nM] | IC50 (human HIF-PHD2) [nM]
CC(c1cc(Cl)ccc1Cl)n1ncc2nc(-n3cc(C(=O)O)cn3)nc(O)c21 (racemic) [Example 264] | 490 | 
CC(c1ccc(N2CCC(C(F)(F)F)CC2)cc1)n1ncc2nc(-n3cc(C(=O)O)cn3)nc(O)c21 (racemic) [Example 423] | 740 | 31
CC(c1ccc(N2CCC(F)CC2)cc1)n1ncc2nc(-n3cc(C(=O)O)cn3)nc(O)c21 (racemic) [Example 424] | 480 | 44
CC1CCN(c2ccc(C(C)n3ncc4nc(-n5cc(C(=O)O)cn5)nc(O)c43)cc2)CC1 (racemic) [Example 425] | 390 | 48
Cc1ccc(C(C)n2ncc3nc(-n4cc(C(=O)O)cn4)nc(O)c32)cc1 (single isomer, unassigned) [Example 292] | 590 | 39
Cc1cc(C(C)n2ncc3nc(-n4cc(C(=O)O)cn4)nc(O)c32)ccc1Cl (single isomer, unassigned) [Example 294] | 470 | 22
Cc1ccc(C(C)n2ncc3nc(-n4cc(C(=O)O)cn4)nc(O)c32)cc1F (single isomer, unassigned) [Example 296] | 480 | 55
Cc1ccc(C(C)n2ncc3nc(-n4cc(C(=O)O)cn4)nc(O)c32)cc1Cl (single isomer, unassigned) [Example 298] | 300 | 29
Cc1cc(C(C)n2ncc3nc(-n4cc(C(=O)O)cn4)nc(O)c32)ccc1F (single isomer, unassigned) [Example 302] | 570 | 50
CC(c1ccc(F)c(C(F)(F)F)c1)n1ncc2nc(-n3cc(C(=O)O)cn3)nc(O)c21 (single isomer, unassigned) [Example 304] | 230 | 15
CC(c1cc(Cl)cc(Cl)c1)n1ncc2nc(-n3cc(C(=O)O)cn3)nc(O)c21 (single isomer, unassigned) [Example 308] | 510 | 54
Cc1ccc(Cl)cc1C(C)n1ncc2nc(-n3cc(C(=O)O)cn3)nc(O)c21 (single isomer, unassigned) [Example 312] | 510 | 110
Cc1ccc(F)c(C(C)n2ncc3nc(-n4cc(C(=O)O)cn4)nc(O)c32)c1 (single isomer, unassigned) [Example 314] | 800 | 61
CC(c1ccc(Cl)c(C(F)(F)F)c1)n1ncc2nc(-n3cc(C(=O)O)cn3)nc(O)c21 (single isomer, unassigned) [Example 316] | 470 | 29
CC(c1cc(Cl)c(Cl)s1)n1ncc2nc(-n3cc(C(=O)O)cn3)nc(O)c21 (single isomer, unassigned) [Example 320] | 480 | 18
CCC(c1ccc(F)cc1)n1ncc2nc(-n3cc(C(=O)O)cn3)nc(O)c21 (single isomer, unassigned) [Example 325] | 630 | 36
CCC(c1ccc(C)cc1)n1ncc2nc(-n3cc(C(=O)O)cn3)nc(O)c21 (single isomer, unassigned) [Example 329] | 590 | 120
CCC(c1cc(C(F)(F)F)cc(C(F)(F)F)c1)n1ncc2nc(-n3cc(C(=O)O)cn3)nc(O)c21 (single isomer, unassigned) [Example 335] |  | 76
CCC(c1ccc(F)c(Cl)c1)n1ncc2nc(-n3cc(C(=O)O)cn3)nc(O)c21 (single isomer, unassigned) [Example 338] | 420 | 28

SMILES | IC50 (human HIF-PHD3) [nM] | IC50 (human HIF-PHD2) [nM]
CCC(c1cccc(C(F)(F)F)c1)n1ncc2nc(-n3cc(C(=O)O)cn3)nc(O)c21 (single isomer, unassigned) [Example 342] | 480 | 36
CCC(c1ccc(Cl)c(C)c1)n1ncc2nc(-n3cc(C(=O)O)cn3)nc(O)c21 (single isomer, unassigned) [Example 347] | 400 | 38
CCC(c1ccc(C)c(Cl)c1)n1ncc2nc(-n3cc(C(=O)O)cn3)nc(O)c21 (single isomer, unassigned) [Example 349] | 390 | 67
CCC(c1ccc(Cl)cc1F)n1ncc2nc(-n3cc(C(=O)O)cn3)nc(O)c21 (single isomer, unassigned) [Example 351] | 210 | 24
CC(C)C(c1ccc(F)cc1)n1ncc2nc(-n3cc(C(=O)O)cn3)nc(O)c21 (single isomer, unassigned) [Example 355] | 540 | 120
CC(C)C(c1ccc(C(F)(F)F)cc1)n1ncc2nc(-n3cc(C(=O)O)cn3)nc(O)c21 (single isomer, unassigned) [Example 357] | 390 | 77
CC(C)C(c1cccc(C(F)(F)F)c1)n1ncc2nc(-n3cc(C(=O)O)cn3)nc(O)c21 (single isomer, unassigned) [Example 363] | 1300 | 57
CC1CCCC(n2ncc3nc(-n4cc(C(=O)O)cn4)nc(O)c32)C1 (single isomer, unassigned) [Example 399] | 590 | 54
CC1CCCC(n2ncc3nc(-n4cc(C(=O)O)cn4)nc(O)c32)C1 (single isomer, unassigned) [Example 401] | 1200 | 48
CC1CC(n2ncc3nc(-n4cc(C(=O)O)cn4)nc(O)c32)CC(C)(C)C1 (single isomer, unassigned) [Example 408] | 400 | 38
CC1CC(n2ncc3nc(-n4cc(C(=O)O)cn4)nc(O)c32)CC(C)(C)C1 (single isomer, unassigned) [Example 410] | 430 | 42
O=C(O)c1cnn(-c2nc(O)c3c(cnn3CC3(c4ccccc4)CC3)n2)c1 [Example 122] |  | 74
O=C(O)c1cnn(-c2nc(O)c3c(cnn3CC3CCNCC3)n2)c1 [Example 169] | 2100 | 
C[C@@H](c1cc(Cl)ccc1Cl)n1ncc2nc(-n3cc(C(=O)O)cn3)[nH]c(=O)c21 [Example 263] | 610 | 
CCC(c1ccc(C)c(Cl)c1)n1ncc2nc(-n3cc(C(=O)O)cn3)nc(O)c21 (centres unmarked) [Example 348] |  | 110
O=C(O)c1cnn(-c2nc(O)c3c(cnn3Cc3ccc(N4CCCC4=O)cc3)n2)c1 [Example 419] |  | 44
C[C@@H](c1ccc(F)cc1F)n1nc(C2CC2)c2nc(-n3cc(C(=O)O)cn3)nc(O)c21 [Example 460] |  | 180
O=C(O)c1cnn(-c2nc(O)c3c(n2)c(Cc2ccccc2)nn3CC2CCCCC2)c1 [Example 504] |  | 160
